In patent US9221827B2, “Antimicrobial compounds and methods of making and using the same” (Melinta Therapeutics, Inc., priority 2011, dated 2015):

Tested on: Escherichia coli strain ATCC25922
Assay: standard microdilution assay to determine minimum inhibitory concentrations (MICs)
Type: cell-based
Method: The in vitro activity of the compounds of the present invention can be determined. Antimicrobial testing is typically performed to determine the minimum inhibitory concentration (MIC). Minimum inhibitory concentrations (MICs) are determined by the microdilution method in a final volume of 100 μl according to protocols outlined by The Clinical and Laboratory Standards Institute (CLSI). Performance standards for reference strains are assessed within the same experimental design to maintain quality control. See, for example, Clinical Laboratory Standards Institute: Methods for dilution antimicrobial susceptibility tests for bacteria that grow aerobically M7-A8. Approved Standard-Eighth Edition. Wayne, Pa.: CLSI; December 2008; and Clinical Laboratory Standards Institute: Performance Standards for Antimicrobial Susceptibility Testing M100-S20; Approved Standard-Twentieth Edition. Wayne, Pa.: CLSI; June 2010.
The compounds of the present invention were tested for antimicrobial activity. […] The compounds were run against Escherichia coli strain ATCC25922 using a standard microdilution assay to determine minimum inhibitory concentrations (MICs). […] A “N/A” means that data is unavailable. It will be recognized by one skilled in the art that the compounds can be assessed against other bacterial organisms and that the presentation of data for activity against Escherichia coli is illustrative and in no way is intended to limit the scope of the present invention. The compounds of the present invention can be assayed against a range of other microorganisms depending upon the performance activity desired to be gathered. Furthermore, the “+”, “−”, and “N/A” representation and the selection of a cutoff value of 16 micrograms/ml is also illustrative and in no way is intended to limit the scope of the present invention.

[1] = Escherichia coli strain ATCC25922, standard microdilution assay
[2] = Escherichia coli strain ATCC25922, microdilution

In the case of `CC(C)c1cc(CCC[C@H](C)N)cc(-c2cc3cn(-c4ccc(CNCCCNC(=N)N)cc4)c(=O)nc3[nH]2)c1F` [Compound 408], the “E. coli ATCC25922 MIC” value [1] is reported as “+ (a “+” indicates that the compound has an MIC value of 16 micrograms/ml or less)”.
With `COC(=O)C(NCCCNC(=N)N)c1ccc(-n2cc3cc(-c4cc(CCCC(C)N)cc(SC(F)(F)F)c4)[nH]c3nc2=O)cc1` (stereo not drawn) [Compound 498] the “E. coli ATCC25922 MIC” value [2] was “+ (a “+” indicates that the compound has an MIC value of 16 micrograms/ml or less)”.
With `N=C(N)NCCCNCc1ccc(-n2cc3cc(-c4cc(CCCCN)cc(OC(F)(F)F)c4F)[nH]c3nc2=O)cc1` [Compound 107] the “E. coli ATCC25922 MIC” value [2] was “+ (a “+” indicates that the compound has an MIC value of 16 micrograms/ml or less)”.
`CC(NCCCNC(=N)N)c1ccc(-n2cc3cc(-c4cc(COC(C)C(C)N)cc(OC(F)(F)F)c4)[nH]c3nc2=O)cc1` (stereo not drawn) [Compound 419] was tested, and the “E. coli ATCC25922 MIC” value [1] was “+ (a “+” indicates that the compound has an MIC value of 16 micrograms/ml or less)”.
For `CC(C)(N)CCCc1ccc(F)c(-c2cc3cn(-c4ccc(CNCCCNC(=N)N)cc4)c(=O)nc3[nH]2)c1` [Compound 130], the “E. coli ATCC25922 MIC” value [2] was “+ (a “+” indicates that the compound has an MIC value of 16 micrograms/ml or less)”.
In the case of `Cc1cc(-c2cc3cn(-c4ccc(CNCCCN=C(N)N)cc4)c(=O)nc3[nH]2)cc(CCCCN)c1F` [Compound 73], the “E. coli ATCC25922 MIC” value [2] is reported as “+ (a “+” indicates that the compound has an MIC value of 16 micrograms/ml or less)”.
`CSCCc1cc(CCCCN)cc(-c2cc3cn(-c4ccc(CNCCCNC(=N)N)cc4)c(=O)nc3[nH]2)c1` [Compound 11] was tested, and the “E. coli ATCC25922 MIC” value [2] was “+ (a “+” indicates that the compound has an MIC value of 16 micrograms/ml or less)”.
`CNC(C)CCCc1cc(SC(F)(F)F)cc(-c2cc3cn(-c4ccc(CNCCCNC(=N)N)cc4)c(=O)nc3[nH]2)c1` (stereo not drawn) [Compound 294] was tested, and the “E. coli ATCC25922 MIC” value [2] was “+ (a “+” indicates that the compound has an MIC value of 16 micrograms/ml or less)”.
With `N=C(N)NCCCNCc1ccc(-c2c[nH]c(NC(=O)Nc3c(OCCCN)cccc3C3CC3)nc2=O)cc1` [Compound 189] the “E. coli ATCC25922 MIC” value [2] was “− (a “−” indicates that the compound has an MIC value greater than 16 micrograms/ml)”.
`C[C@H](N)COCc1cc(OC(F)(F)F)cc(-c2cc3cn(-c4ccc(CNCCCNC(=N)N)cc4)c(=O)nc3[nH]2)c1` [Compound 311] was tested, and the “E. coli ATCC25922 MIC” value [2] was “+ (a “+” indicates that the compound has an MIC value of 16 micrograms/ml or less)”.
In the case of `CCc1cc(CCCCN)cc(-c2cc3cn(-c4ccc(CNCCCNC(=N)N)cc4)c(=O)nc3[nH]2)c1F` [Compound 135], the “E. coli ATCC25922 MIC” value [2] is reported as “+ (a “+” indicates that the compound has an MIC value of 16 micrograms/ml or less)”.
With `C[C@H](N)CCCc1cc(-c2cc3cn(-c4ccc([C@H](C)NCCCNC(=N)N)cc4)c(=O)nc3[nH]2)cc2c1COC2` [Compound 443] the “E. coli ATCC25922 MIC” value [1] was “+ (a “+” indicates that the compound has an MIC value of 16 micrograms/ml or less)”.
With `CCc1cc(CCC[C@H](C)N)nc(-c2cc3cn(-c4ccc(CNCCCNC(=N)N)cc4)c(=O)nc3[nH]2)c1` [Compound 387] the “E. coli ATCC25922 MIC” value [1] was “+ (a “+” indicates that the compound has an MIC value of 16 micrograms/ml or less)”.
For `CC(N)CCCc1cc(SC(F)(F)F)c(Cl)c(-c2cc3cn(-c4ccc(CNCCCNC(=N)N)cc4)c(=O)nc3[nH]2)c1` (stereo not drawn) [Compound 288], the “E. coli ATCC25922 MIC” value [2] was “+ (a “+” indicates that the compound has an MIC value of 16 micrograms/ml or less)”.
In the case of `C[C@H](N)CCCc1cc(SC(F)(F)F)c(Cl)c(-c2cc3cn(-c4ccc([C@@H](C)N)cc4)c(=O)nc3[nH]2)c1` [Compound 409], the “E. coli ATCC25922 MIC” value [1] is reported as “− (a “−” indicates that the compound has an MIC value greater than 16 micrograms/ml)”.
With `CC(C)(CN)CCc1cc(Cl)c(F)c(-c2cc3cn(-c4ccc(CNCCCNC(=N)N)cc4)c(=O)nc3[nH]2)c1` [Compound 243] the “E. coli ATCC25922 MIC” value [2] was “+ (a “+” indicates that the compound has an MIC value of 16 micrograms/ml or less)”.
With `CCc1cc(CCCCN)cc(-c2cc3cn(-c4ccc(CNCCCNC(=N)N)cc4)c(=O)nc3[nH]2)c1` [Compound 123] the “E. coli ATCC25922 MIC” value [2] was “+ (a “+” indicates that the compound has an MIC value of 16 micrograms/ml or less)”.
With `CC(C)(N)CCCc1cc(-c2cc3cn(-c4ccc(CNCCCNC(=N)N)cc4)c(=O)nc3[nH]2)cc(C(F)(F)F)c1` [Compound 317] the “E. coli ATCC25922 MIC” value [2] was “+ (a “+” indicates that the compound has an MIC value of 16 micrograms/ml or less)”.
For `CC(NCCCNC(=N)N)c1ccc(-n2cc3cc(-c4cc(CC5CCC(N)C5)cc(Cl)c4F)[nH]c3nc2=O)cc1` (mixture of isomers) [Compound 421], the “E. coli ATCC25922 MIC” value [1] was “+ (a “+” indicates that the compound has an MIC value of 16 micrograms/ml or less)”.
For `Cc1cc(CCCCN)cc(-c2cc3cn(-c4ccc(CNCCCNC(=N)N)cc4)c(=O)nc3[nH]2)c1F` [Compound 133], the “E. coli ATCC25922 MIC” value [2] was “+ (a “+” indicates that the compound has an MIC value of 16 micrograms/ml or less)”.
With `N=C(N)NCCCNCc1ccc(-n2cc3cc(-c4cc(CCCCN)ccc4OC(F)(F)F)[nH]c3nc2=O)cc1` [Compound 50] the “E. coli ATCC25922 MIC” value [2] was “+ (a “+” indicates that the compound has an MIC value of 16 micrograms/ml or less)”.
For `CC(CCN)Cc1cc(OC(F)(F)F)cc(-c2cc3cn(-c4ccc(CNCCCNC(=N)N)cc4)c(=O)nc3[nH]2)c1` (stereo not drawn) [Compound 93], the “E. coli ATCC25922 MIC” value [2] was “+ (a “+” indicates that the compound has an MIC value of 16 micrograms/ml or less)”.
In the case of `N=C(N)NCCCNCc1ccc(-n2cc3cc(-c4cc(CCCO)cc(OC(F)(F)F)c4)[nH]c3nc2=O)cc1` [Compound 60], the “E. coli ATCC25922 MIC” value [2] is reported as “− (a “−” indicates that the compound has an MIC value greater than 16 micrograms/ml)”.
With `N=C(N)NCCCNCc1ccc(-n2cc3cc(-c4cc(CSCCN)cc(OC(F)(F)F)c4)[nH]c3nc2=O)cc1` [Compound 8] the “E. coli ATCC25922 MIC” value [2] was “+ (a “+” indicates that the compound has an MIC value of 16 micrograms/ml or less)”.
With `CCC(N)COC(C)c1cc(-c2cc3cn(-c4ccc(CNCCCNC(=N)N)cc4)c(=O)nc3[nH]2)cc(C(F)(F)F)c1` (stereo not drawn) [Compound 479] the “E. coli ATCC25922 MIC” value [2] was “+ (a “+” indicates that the compound has an MIC value of 16 micrograms/ml or less)”.
For `C[C@H](N)c1ccc(-n2cc3cc(-c4cc(CCC5(CN)CC5)cc(C(F)(F)F)c4)[nH]c3nc2=O)cc1` [Compound 354], the “E. coli ATCC25922 MIC” value [1] was “− (a “−” indicates that the compound has an MIC value greater than 16 micrograms/ml)”.
With `CC(NCCCNC(=N)N)c1ccc(-n2cc3cc(-c4cc(COC5CC(N)C5)cc(OC(F)(F)F)c4)[nH]c3nc2=O)cc1` (mixture of isomers) [Compound 423] the “E. coli ATCC25922 MIC” value [1] was “+ (a “+” indicates that the compound has an MIC value of 16 micrograms/ml or less)”.
In the case of `C[C@H](N)CCCc1cc(-c2cc3cn(-c4ccc([C@H](C)NCCCNC(=N)N)cc4)c(=O)nc3[nH]2)cc2c1CCC2` [Compound 393], the “E. coli ATCC25922 MIC” value [1] is reported as “+ (a “+” indicates that the compound has an MIC value of 16 micrograms/ml or less)”.
`C[C@H](N)CCCc1cc(-c2cc3cn(-c4ccc([C@H](C)NCCCNC(=N)N)cc4)c(=O)nc3[nH]2)cc(C(C)(C)C)c1` [Compound 434] was tested, and the “E. coli ATCC25922 MIC” value [1] was “+ (a “+” indicates that the compound has an MIC value of 16 micrograms/ml or less)”.
For `C[C@H](N)COCc1cc(-c2cc3cn(-c4ccc([C@H](C)NCCCNC(=N)N)cc4)c(=O)nc3[nH]2)cc(C(F)(F)F)c1` [Compound 322], the “E. coli ATCC25922 MIC” value [2] was “+ (a “+” indicates that the compound has an MIC value of 16 micrograms/ml or less)”.
With `CC(C)Cc1cc(CCC[C@H](C)N)cc(-c2cc3cn(-c4ccc([C@H](C)NCCCNC(=N)N)cc4)c(=O)nc3[nH]2)c1F` [Compound 432] the “E. coli ATCC25922 MIC” value [1] was “+ (a “+” indicates that the compound has an MIC value of 16 micrograms/ml or less)”.
`NCc1ccc(-n2cc3cc(-c4cc(CCC5(CN)CC5)cc(SC(F)(F)F)c4)[nH]c3nc2=O)cc1` [Compound 357] was tested, and the “E. coli ATCC25922 MIC” value [1] was “− (a “−” indicates that the compound has an MIC value greater than 16 micrograms/ml)”.
In the case of `C[C@H](NCCCNC(=N)N)c1ccc(-n2cc3cc(-c4cc(C[C@H]5C[C@@H](N)C5)cc(C(F)(F)F)c4)[nH]c3nc2=O)cc1` [Compound 395], the “E. coli ATCC25922 MIC” value [1] is reported as “+ (a “+” indicates that the compound has an MIC value of 16 micrograms/ml or less)”.
With `CC(CCN)Cc1cc(F)c(Cl)c(-c2cc3cn(-c4ccc(CNCCCNC(=N)N)cc4)c(=O)nc3[nH]2)c1` (stereo not drawn) [Compound 128] the “E. coli ATCC25922 MIC” value [2] was “+ (a “+” indicates that the compound has an MIC value of 16 micrograms/ml or less)”.
In the case of `N=C(N)NCCCNCc1ccc(-n2cc3cc(-c4cc(CCCCN)cc(C(F)(F)F)c4C(F)(F)F)[nH]c3nc2=O)cc1` [Compound 293], the “E. coli ATCC25922 MIC” value [2] is reported as “+ (a “+” indicates that the compound has an MIC value of 16 micrograms/ml or less)”.
In the case of `CC(N)CCCc1cc(Cl)c(F)c(-c2cc3cn(-c4ccc(C(C)NCCCNC(N)=NC5CNC5)cc4)c(=O)nc3[nH]2)c1` (stereo not drawn) [Compound 383], the “E. coli ATCC25922 MIC” value [1] is reported as “+ (a “+” indicates that the compound has an MIC value of 16 micrograms/ml or less)”.
In the case of `Cc1c(-c2cc3cn(-c4ccc(CNCCCNC(=N)N)cc4)c(=O)nc3[nH]2)cc(CCCCN)cc1[N+](=O)[O-]` [Compound 120], the “E. coli ATCC25922 MIC” value [2] is reported as “+ (a “+” indicates that the compound has an MIC value of 16 micrograms/ml or less)”.
`N=C(N)NCCCNCc1ccc(-n2cc3cc(-c4cc(CCCCN)cc(C5CC5)c4)[nH]c3nc2=O)cc1` [Compound 18] was tested, and the “E. coli ATCC25922 MIC” value [2] was “+ (a “+” indicates that the compound has an MIC value of 16 micrograms/ml or less)”.
For `CC(N)CCCc1cc(-c2cc3cn(-c4ccc(C(C)NCCCNC(=N)N)cc4)c(=O)nc3[nH]2)cc(C(O)C(F)(F)F)c1` (stereo not drawn) [Compound 504], the “E. coli ATCC25922 MIC” value [2] was “+ (a “+” indicates that the compound has an MIC value of 16 micrograms/ml or less)”.
